Structures can show the parent of a compound that is named as a salt. Where two headings read alike, the source gives them in different places.
Columns and labels:
[1] = cited from earlier work
blood-aqueous barrier = conditions: adding IM instillation vs adding no IM instillation; cited from earlier work
[2] = oil preparation; cited from earlier work
eye ball = conditions: oil preparation, topical instillation to the eye ball; cited from earlier work
[3] = test system: intraocular pressure elevation and aqueous humor protein increase; conditions: rabbits; arachidonic acid; suspensions, FP as aqueous solution; Invest. Ophthalmol., 15(10), 841 to 844 (1976); cited from earlier work
[4] = cited from earlier work; remark: listed apart in the source
[5] = test system: carrageenan-induced edema; conditions: administered orally, rat; cited from earlier work
human eye = test: Irritation of FP to the human eye (general statement); type: in vivo; conditions: concentration of FP above 0.2%
Excerpt: Under the coexistence with β-CD or γ-CD, the solubility of FP in a high concentration can be attained and the decrement of the above-mentioned irritation can be attained even by the use of FP in a high concentration. Moreover, an ophthalmic solution containing FP stable for a long term is obtained by coexisting FP with β-CD or γ-CD.

quinine or PGs system = conditions: compared with known nonsteroidal anti-inflammatory agents; cited from earlier work
[6] = test system: biosynthesis of PGs from arachidonic acid; conditions: lung homogenate of guinea pig; cited from earlier work
[7] = test system: eye of the rabbits (pupillary diameter); test: Mydriasis effect of atropine (Test Example 4); type: in vivo, rabbit; conditions: 1 w/v % atropine sulfate, 40 μl.
Procedure: Mydriasis induced by atropine instillation was first observed, assuming that a mydriasis treatment is usually performed prior to operation.
The test was performed using 5 rabbits, and a drop (40 μl.) of a 1 w/v % solution of atropine sulfate in physiological salt solution was instilled to the right eye of the rabbits, and the change of status of the eye with lapse of time was observed by the photographic determination of pupillary diameter. The pupillary diameter difference [(the pupillary diameter at each time after instillation)--(the pupillary diameter before instillation)] and rate of mydriasis (%), which was calculated according to the following formula, were determined. [formula] The pupillary diameter difference and the rate of mydriasis in FIG. 5 are the mean values as to 5 rabbits.

intraocular pressure = conditions: subconjunctival injection, cited from earlier work

COc1ccc2c(c1)c(CC(=O)O)c(C)n2C(=O)c1ccc(Cl)cc1 [indomethacin]
side effect ([1]; oral administration in large amounts): digestive trouble | inhibition on increase of permeability of blood-aqueous barrier after operation, relative to no IM instillation (blood-aqueous barrier): about 3 times | stability of the preparation [2]: poor | feeling in use (eye ball): bad | inhibitory effect on the intraocular pressure elevation and aqueous humor protein increase [3]: particularly strong inhibitory effects

CC(C(=O)O)c1ccc(-c2ccccc2)c(F)c1 (centres unmarked) [FP, 2-(2-fluoro-4-biphenylyl)propionic acid]
solubility [4]: limited solubility | anti-inflammatory effect relative to aspirin [5]: 250 times | anti-inflammatory effect relative to indomethacin [5]: 14 times | irritation to the human eye (human eye): enhanced | strength of inhibitory effect (quinine or PGs system): the strongest among known nonsteroidal anti-inflammatory agents | inhibitory effect on the intraocular pressure elevation and aqueous humor protein increase [3]: particularly strong inhibitory effects | inhibitory effect on biosynthesis of PGs relative to aspirin [6]: 2,280 times | inhibitory effect on biosynthesis of PGs relative to indomethacin [6]: 10 times

CN1[C@@H]2CC[C@H]1C[C@@H](OC(=O)C(CO)c1ccccc1)C2 (some centres unmarked) [atropine, atropine sulfate]
time to maximum pupillary diameter [7]: one | change in the maximum pupillary diameter ([7]; even after 6 hours from the instillation): no change

polyphloretin phosphate
effect on intraocular pressure (intraocular pressure; glaucomatocyclitic crisis): effect of decreasing the intraocular pressure | pain (intraocular pressure): causes pain to a patient and eye pain or smart feeling is strong

COc1ccc(-c2[nH]c3ccccc3c2-c2ccc(OC)cc2)cc1 [indoxole]
inhibitory effect on the intraocular pressure elevation and aqueous humor protein increase [3]: particularly strong inhibitory effects

CC(=O)Oc1ccccc1C(=O)O [aspirin]
side effect ([1]; in vivo, po): digestive trouble

Cc1ccc(Cl)c(Nc2ccccc2C(=O)O)c1Cl [meclofenamic acid]
inhibitory effect on the intraocular pressure elevation and aqueous humor protein increase [3]: particularly strong inhibitory effects
